According to US10098887B2, “Antiviral compounds and methods of use thereof” (Trana Discovery, Inc., priority 2010, dated 2018):

Tests used:
[1] = tested on: interaction between Human tRNA^Lys3 and HIV-1 genomic RNA; assay: Biochemical HIV-1 tRNA Inhibition Assay (AlphaScreen); assay type: binding; parameters: key: +: showing some activity; ++: intermediate activity; +++: the highest activity; details: active compounds from high throughput screening, prioritized on IC50
Description: The methods for detecting binding of the target RNA to the tRNA or the inhibition of such binding may be performed using any method for such detection. For example, the AlphaScreen® assay (Packard Instrument Company, Meriden, Conn.). AlphaScreen® technology is an “Amplified Luminescent Proximity Homogeneous Assay” method utilizing latex microbeads (250 nm diameter) containing a photosensitizer (donor beads), or chemiluminescent groups and fluorescent acceptor molecules (acceptor beads). Upon illumination with laser light at 680 nm, the photosensitizer in the donor bead converts ambient oxygen to singlet-state oxygen. The excited singlet-state oxygen molecules diffuse approximately 250 nm (one bead diameter) before rapidly decaying. If the acceptor bead is in close proximity to the donor bead (i.e., by virtue of the interaction of the target RNA and tRNA fragment), the singlet-state oxygen molecules reacts with chemiluminescent groups in the acceptor beads, which immediately transfer energy to fluorescent acceptors in the same bead. These fluorescent acceptors shift the emission wavelength to 520-620 nm, resulting in a detectable signal. Antagonists of the interaction of the target RNA with the tRNA fragment will thus inhibit the shift in emission wavelength, whereas agonists of this interaction would enhance it.
In the AlphaScreen configuration (FIG. 3) the assay is done in solution using the same RNA as the immobilization assay. The donor and acceptor beads are bound to their respective RNA's. During the screening the RNAs and test drugs/small molecules are incubated together and formation of the complex is measured using the AlphaScreen detection conditions. Utilization of the AlphaScreen assay may allow for the assay to be run at a lower RNA concentration at room temperature, and increase the stability of the complex.
HIV-1 has evolved to use Human tRNA^Lys3 as a primer for initiation of reverse transcription. Therefore, the interaction between tRNA^Lys3 and viral genomic RNA represents a potential novel target for HIV-1 drug development. Based on this hypothesis, a biochemical assay to identify inhibitors of the interaction between Human tRNA^Lys3 and HIV-1 genomic RNA was developed by TRANA Discovery and transferred to Southern Research Institute for high-throughput screening. This assay was developed as a homogeneous amplified luminescent proximity assay using AlphaScreen™ reagents from PerkinElmer. Based on this assay technology, the AlphaScreen™ luminescent signal serves as a mechanism for detecting the interaction between RNA molecules that represent Human tRNA^Lys3 and HIV-1 genomic RNA. The inhibition of the interaction between these RNA molecules by test compounds is detected as a decrease in the AlphaScreen™ luminescent signal.
A preliminary 15,000 compound screen (NINDS Diversity Set) was previously completed and the results were reported through NIAID contract N01-AI-70042. For the results described herein, a 101,000 compound library that was purchased from ChemBridge for the NIAID TAACF program was used. This library was carefully selected for diversity and minimal similarity to the 100,000 compound NINDS library, which is also planned to be screened using the TRANA Discovery Biochemical HIV-1 tRNA Inhibition Assay. The compounds were screened at a concentration of 12.5 μg/mL (first 3 batches) or 25 μg/mL (fourth and final batch).

[2] = assays described herein (not specified)

Structure (SMILES)	Activity [1]	active in the assays described herein [2]
O=C1NC(=O)N(c2cccc3ccccc23)C(=O)C1=Cc1ccco1 [5-(2-furylmethylene)-1-(1-naphthyl)-2,4,6(1H,3H,5H)-pyrimidinetrione]	+	
O=C1C(=Cc2ccc(O)c(O)c2)SC(=S)N1c1cccc(F)c1 [5-(3,4-dihydroxybenzylidene)-3-(3-fluorophenyl)-2-thioxo-1,3-thiazolidin-4-one]	++	
CCN1C(=O)C(=Cc2ccc(O)c(O)c2)SC1=S [5-(3,4-dihydroxybenzylidene)-3-ethyl-2-thioxo-1,3-thiazolidin-4-one]	+	
O=C1C(=Cc2ccc(O)c(O)c2)SC(=S)N1c1ccccc1 [5-(3,4-dihydroxybenzylidene)-3-phenyl-2-thioxo-1,3-thiazolidin-4-one]	+	
CC(=O)N1c2ccc(C)cc2-c2c(ssc2=S)C1(C)C [5-acetyl-4,4,8-trimethyl-4,5-dihydro-1H[1,2]dithiolo[3,4-c]quinoline-1-thione]	+	
CCOc1ccc2c(c1)-c1c(ssc1=S)C(C)(C)N2C(C)=O [5-acetyl-8-ethoxy-4,4-dimethyl-4,5-dihydro-1H-[1,2]dithiolo[3,4-c]quinoline-1-thione]	+	
COc1ccc2c(c1)-c1c(ssc1=S)C(C)(C)N2C(C)=O [5-acetyl-8-methoxy-4,4-dimethyl-4,5-dihydro-1H-[1,2]dithiolo[3,4-c]quinoline-1-thione]	+	
Cc1ccc(C=NNc2ccccc2[N+](=O)[O-])o1 [5-methyl-2-furaldehyde (2-nitrophenyl)hydrazone]	+	
Cc1[nH]c(=O)[nH]c1C(=O)CCCCC(=O)O [6-(5-methyl-2-oxo-2,3-dihydro-1H-imidazol-4-yl)-6-oxohexanoic acid]	+++	
CCOc1ccc2c(c1)-c1c(s[s+]c1SC)C(C)(C)N2.[Cl-] [8-ethoxy-4,4-dimethyl-1-(methylthio)-4,5-dihydro[1,2]dithiolo[3,4-c]quinolin-2-ium chloride]	++	
COc1ccccc1N1CCN(CC=Cc2ccc(N(C)C)cc2)CC1 [(4-{3-[4-(2-methoxyphenyl)-1-piperazinyl]-1-propen-1-yl}phenyl)dimethylamine]	+	
CN(C)c1ccc(C(O)(c2ccc(N(C)C)cc2)c2ccc(N(C)C)cc2)cc1 [Compound 7, tris[4-(dimethylamino)phenyl]methanol]		active
O=C(O)CCCCC1SCC2NC(=O)NC21 (stereo not drawn) [Compound 8, 5-(2-oxohexahydro-1H-thieno[3,4-d]imidazol-4-yl)pentanoic acid]		active
CCc1ccc(C2=CC(=O)c3ccccc3C2=O)cc1 [Compound 26, 2-(4-ethylphenyl)naphthoquinone]		active
CCc1ccc(N2N=C(C)C(=Cc3ccc(N4CCOCC4)cc3)C2=O)cc1 [Compound 32, 2-(4-ethylphenyl)-5-methyl-4-[4-(4-morpholinyl)benzylidene]-2,4-dihydro-3H-pyrazol-3-one]		active
O=c1cc2oc3cc(O)c(O)cc3c(-c3ccc([N+](=O)[O-])o3)c-2cc1O [Compound 38, 2,6,7-trihydroxy-9-(5-nitro-2-furyl)-3H-xanthen-3-one]		active
CNC(=S)N1N=C(c2ccc(OC)cc2)CC1c1ccc(N(C)C)cc1 (stereo not drawn) [Compound 40, 5-[4-(dimethylamino)phenyl]-3-(4-methoxyphenyl)-N-methyl-4,5-dihydro-1H-pyrazole-1-carbothioamide]		active
COc1ccc(C(=C2C=CC=C2)c2ccc(OC)cc2)cc1 [Compound 46, 1,1′-(2,4-cyclopentadien-1-ylidenemethylene)bis(4-methoxybenzene)]		active
CCc1cc2c(=S)c(-c3ccccc3Cl)coc2cc1OC [Compound 47, 3-(2-chlorophenyl)-6-ethyl-7-methoxy-4H-chromene-4-thione]		active
O=C1c2ccc([N+](=O)[O-])cc2C(=O)N1C1CC2CCC1C2 (stereo not drawn) [Compound 57, 2-bicyclo[2.2.1]hept-2-yl-5-nitro-1H-isoindole-1,3(2H)-dione]		active

Structure (SMILES)	Activity [1]	active in the assays described herein [2]
CCCOc1ccc(C2Oc3ccc(Br)cc3C=C2[N+](=O)[O-])cc1OC (stereo not drawn) [Compound 59, 6-bromo-2-(3-methoxy-4-propoxyphenyl)-3-nitro-2H-chromene]		active
O=C1NC(=O)N(c2ccc(Cl)cc2)C(=O)C1=Cc1ccc([N+](=O)[O-])o1 [Compound 65, 1-(4-chlorophenyl)-5-[(5-nitro-2-furyl)methylene]-2,4,6(1H,3H,5H)-pyrimidinetrione]		active
CCc1ccc(N2N=C(C)C(=Cc3cc(OC)c(O)c(OC)c3)C2=O)cc1 [Compound 72, 2-(4-ethylphenyl)-4-(4-hydroxy-3,5-dimethoxybenzylidene)-5-methyl-2,4-dihydro-3H-pyrazol-3-one]		active
Br.CCN(CC)c1ccc(Nc2nc(-c3ccccn3)cs2)cc1 [N,N-diethyl-N′-[4-(2-pyridinyl)-1,3-thiazol-2-yl]-1,4-benzenediamine hydrobromide]	+	
Cc1ccc2nc3c(c(Nc4ccc(N(C)C)cc4)c2c1)CCC3 [N,N-dimethyl-N′-(7-methyl-2,3-dihydro-1H-cyclopenta[b]quinolin-9-yl)-1,4-benzenediamine]	+	
Cc1nc(NC(=N)N)nc2c(C)cccc12 [N-(4,8-dimethyl-2-quinazolinyl)guanidine]	+	
CCOc1nc(NC(=N)N)nc2c(C)cccc12 [N-(4-ethoxy-8-methyl-2-quinazolinyl)guanidine]	++	
CCOc1ccc(Nc2ccc([N+](=O)[O-])c3nonc23)cc1 [N-(4-ethoxyphenyl)-7-nitro-2,1,3-benzoxadiazol-4-amine]	+	
COc1ccc2c(C)nc(NC(=N)N)nc2c1 [N-(7-methoxy-4-methyl-2-quinazolinyl)guanidine]	+	
CCN(CC)c1ccc(NC(=S)NC(=O)c2cccc(OC(C)C)c2)cc1 [N-({[4-(diethylamino)phenyl]amino}carbonothioyl)-3-isopropoxybenzamide]	+	
CCN(CC)CCN(CC)Cc1ccc(N(C)C)cc1 [N-[4-(dimethylamino)benzyl]-N,N′,N′-triethyl-1,2-ethanediamine]	+	
CCOC(=O)C(C(=O)c1ccccc1)C1=CC(=O)C(=O)c2ccc(Br)cc21 (stereo not drawn) [ethyl 2-(7-bromo-3,4-dioxo-3,4-dihydro-1-naphthalenyl)-3-oxo-3-phenylpropanoate]	+	
CCOC(=O)c1ccc(NC2=C(N3CCOCC3)C(=O)c3ccccc3C2=O)cc1 [ethyl 4-{[3-(4-morpholinyl)-1,4-dioxo-1,4-dihydro-2-naphthalenyl]amino}benzoate]	++	
CCOC(=O)c1cc(N)ccc1-c1c2ccc(=O)cc-2oc2cc(O)ccc12 [ethyl 5-amino-2-(6-hydroxy-3-oxo-3H-xanthen-9-yl)benzoate]	+++	
CCOC(=O)CCCCC(=O)c1[nH]c(=O)[nH]c1C [ethyl 6-(5-methyl-2-oxo-2,3-dihydro-1H-imidazol-4-yl)-6-oxohexanoate]	++	
CCOC(=O)C=C1NC(c2ccccc2)=C(c2ccccc2)C1=O [ethyl (3-oxo-4,5-diphenyl-1,3-dihydro-2H-pyrrol-2-ylidene)acetate]	++	
COC(=O)c1ccc(NC2=C(N3CCCC3)C(=O)c3ccccc3C2=O)cc1 [methyl 4-{[1,4-dioxo-3-(1-pyrrolidinyl)-1,4-dihydro-2-naphthalenyl]amino}benzoate]	++	
COC(=O)c1ccc(NC2=C(N3CCOCC3)C(=O)c3ccccc3C2=O)cc1 [methyl 4-{[3-(4-morpholinyl)-1,4-dioxo-1,4-dihydro-2-naphthalenyl]amino}benzoate]	++	
COC(=O)c1ccc(N2CCCCC2)c2c1C(=O)c1ccccc1C2=O [methyl 9,10-dioxo-4-(1-piperidinyl)-9,10-dihydro-1-anthracenecarboxylate]	++	
